Results from patent publication US7608629B2, “(Piperidinyloxy)phenyl, (piperidinyloxy)pyridinyl, (piperidinylsulfanyl)phenyl and (piperidinylsulfanyl)pyridinyl compounds as 5-HT1F agonists” (Eli Lilly and Company, priority 2003, dated 2009).
Counter-ions that a name gives are not always drawn.

Tested on: not given
Test: not given
Conditions: not given

First: CN1CCC(Oc2cccc(NC(=O)c3ccc(Cl)cc3Cl)c2)CC1.Cl
Second: CN1CCC(Oc2cccc(NC(=O)c3ccc(F)cc3Cl)c2)CC1.Cl
The melting point of the first is lower: 131 to 133 °C for the first, 213 °C for the second.

First: CN1CCC(Oc2cccc(NC(=O)c3ccccc3Br)n2)CC1.Cl
Second: CN1CCC(Oc2cccc(NC(=O)c3ccccc3Cl)n2)CC1.Cl (hydrate or solvate)
The melting point of the first is higher: 104.3 °C for the first, 88 to 90 °C for the second.

First: C[C@H]1C[C@H](Oc2cccc(NC(=O)c3ccc(F)cc3Cl)c2)CCN1C.Cl (single isomer, unassigned)
Second: C[C@H]1C[C@@H](Oc2cccc(NC(=O)c3ccc(F)cc3Cl)c2)CCN1C.Cl (single isomer, unassigned)
The melting point of the first is lower: 145 °C for the first, 152 °C for the second.

Compared with CN1CCC(Oc2cc(NC(=O)c3ccccc3Br)ccc2Cl)CC1.Cl, CN1CCC(Oc2cc(NC(=O)c3ccccc3OC(F)(F)F)ccc2Cl)CC1.Cl is lower in melting point: 146 to 148 °C for the first, 95 to 97 °C for the second.

First: CN1CCC(Oc2cccc(NC(=O)c3c(F)cccc3F)n2)CC1.Cl
Second: CN1CCC(Oc2cccc(NC(=O)c3c(F)cccc3Cl)n2)CC1.Cl
The melting point of the first is higher: 261.4 °C for the first, 139.6 °C for the second.

Compared with CN1CCC(Oc2cc(F)cc(NC(=O)c3ccc(F)cc3)c2)CC1.Cl, CN1CCC(Oc2cccc(NC(=O)c3ccc(F)cc3)n2)CC1.Cl (hydrate or solvate) is higher in melting point: 150 °C for the first, 203 to 205 °C for the second.

First: CN1CCC(Oc2cccc(NC(=O)c3ccccc3C(F)(F)F)c2)CC1.Cl
Second: CN1CCC(Oc2cccc(NC(=O)c3ccccc3OC(F)(F)F)c2)CC1.Cl
The melting point of the first is higher: 135 to 136 °C for the first, 119 to 121 °C for the second.

Compared with CN1CCC(Oc2cccc(NC(=O)c3c(F)cc(F)cc3F)n2)CC1.Cl, CN1CCC(Oc2cccc(NC(=O)c3ccc(F)cc3F)n2)CC1.Cl (hydrate or solvate) is higher in melting point: 264 to 266 °C for the first, 269 to 271 °C for the second.

First: CC(C)C(=O)Nc1cccc(OC2CCN(C)CC2)c1.Cl
Second: CN1CCC(Oc2cccc(NC(=O)C3CCCCC3)c2)CC1.Cl
The melting point of the first is lower: 104 to 105 °C for the first, 141 to 142 °C for the second.

Compared with CN1CCC(Oc2cccc(NC(=O)c3ccccc3OC(F)(F)F)n2)CC1.Cl, CN1CCC(Oc2cccc(NC(=O)c3ccc(F)cc3Cl)n2)CC1.Cl (hydrate or solvate) is higher in melting point: 88.7 °C for the first, 135 to 137 °C for the second.

First: CN1CCC(Oc2cccc(NC(=O)c3ccncc3)n2)CC1.Cl (hydrate or solvate)
Second: CN1CCC(Oc2cccc(NC(=O)c3ccncc3)c2)CC1.Cl
The melting point of the first is higher: 254 to 256 °C for the first, 172 to 175 °C for the second.

Compared with CN1CCC(Oc2cccc(NC(=O)c3c(Cl)cccc3Cl)c2)CC1.Cl, CN1CCC(Oc2cccc(NC(=O)c3c(F)cccc3Cl)c2)CC1.Cl is lower in melting point: 170 to 171 °C for the first, 153 to 154 °C for the second.

Compared with CC1CN(C)CCC1Oc1cccc(NC(=O)c2ccc(F)cc2Cl)n1.Cl (stereo not drawn), C[C@H]1CN(C)CC[C@H]1Oc1cccc(NC(=O)C2=CC=C(F)CC2Cl)n1 (single isomer, unassigned) (as salt: salt) is higher in melting point: 155 to 160 °C for the first, 238 °C for the second.

First: CN1CCC(Oc2cccc(NC(=O)c3ccc(F)cc3)n2)CC1(C)C (stereo not drawn) (as salt: salt)
Second: Cl.O=C(Nc1cccc(OC2CCNCC2)n1)c1ccc(F)cc1 (hydrate or solvate)
The melting point of the first is lower: 145 °C for the first, 251 to 253 °C for the second.

First: CN1CCC(Oc2cc(NC(=O)c3c(F)cccc3Cl)ccc2Cl)CC1.Cl
Second: CN1CCC(Oc2cccc(NC(=O)c3c(F)cccc3F)c2)CC1.Cl
The melting point of the first is higher: 259 to 260 °C for the first, 136 to 138 °C for the second.

First: CN1CCC(Oc2cccc(NC(=O)c3cccnc3)c2)CC1.Cl
Second: CCN1CCC(Oc2cccc(NC(=O)c3ccc(F)cc3Cl)c2)CC1.Cl
The melting point of the first is lower: 73 to 74 °C for the first, 91 °C for the second.

Compared with C[C@@H]1CN(C)CC[C@@H]1Oc1cccc(NC(=O)C2=CC=C(F)CC2Cl)n1 (single isomer, unassigned) (as salt: salt), C[C@H]1C[C@H](Oc2cc(NC(=O)c3ccc(F)cc3Cl)ccc2C(C)(C)C)CCN1C.Cl (single isomer, unassigned) is higher in melting point: 238 °C for the first, 260 °C for the second.

With CN1CCC(Oc2cc(NC(=O)c3ccccc3Cl)ccc2Cl)CC1.Cl the melting point was 259 °C (dec.).
In the case of CCN1CCC(Oc2cccc(NC(=O)c3c(F)cccc3Cl)c2)CC1.Cl, the melting point is reported as 262 °C (dec.).
For CN1CCC(Oc2cc(NC(=O)c3ccc(F)cc3F)ccc2Cl)CC1.Cl, the melting point was 257 °C (dec.).
Work on CN1CCC(Oc2cc(NC(=O)c3c(F)cc(F)cc3F)ccc2Cl)CC1.Cl yielded a melting point of over 270 °C.
For CN1CCC(Oc2cccc(NC(=O)c3ccc(F)c(F)c3F)n2)CC1.Cl, the melting point was 182.4 °C (dec.).
With CN1CCC(Oc2cccc(NC(=O)c3ccccc3Br)c2)CC1.Cl the melting point was 269 °C (dec.).
In the case of CN1CCC(Oc2cccc(NC(=O)c3cc(F)c(F)c(F)c3)n2)CC1.Cl, the melting point is reported as 171.4 °C (dec.).
With CN1CCC(Oc2cc(NC(=O)c3c(F)cccc3F)ccc2Cl)CC1.Cl the melting point was 261 °C (dec.).
With CN1CCC(Oc2cccc(NC(=O)c3c(F)cc(F)cc3F)c2)CC1.Cl the melting point was 136 °C (dec.).

Tested on: rabbit saphenous vein
Test: Rabbit saphenous vein contraction
Conditions: not given
Experimental: Representative compounds of the present invention were tested in a rabbit saphenous vein contraction assay to measure their ability to mediate vasoconstriction. […] The tips of two 30-gauge stainless steel hypodermic needles bent into an L-shape were slipped into the polyethylene tubing. Vessels were gently pushed from the cannula onto the needles. The needles were then separated so that the lower one was attached with thread to a stationary glass rod and the upper one was tied with thread to the transducer. […] An initial optimum resting force of 1 gm was applied to the saphenous vein. Isometric contractions were recorded as changes in grams of force on a Beckman Dynograph with Statham UC-3 transducers and microscale accessory attachments. Tissues were allowed to equilibrate 1 to 2 hours before exposure to drugs. Cumulative agonist concentration-response curves were generated in tissues and no tissue was used to generate more than two agonist concentration-response curves. […] This vasoconstriction assay measures two important parameters, saphenous vein contraction (EC50) and maximal contraction as a % maximal KCl response (% man KCl).

In the case of CNS(=O)(=O)Cc1ccc2[nH]cc(CCN(C)C)c2c1 [sumatriptan], the “corrected vasoconstriction EC50 (EC50 divided by %max KCl)” value is reported as 10.3 nM.

Same assay, conditions: Oryctolagus cuniculus

For CNS(=O)(=O)Cc1ccc2[nH]cc(CCN(C)C)c2c1 [sumatriptan], the EC50 was 660 nM.
